Measurements: patent US20240158446A1, “CYCLIC COMPOUND HAVING SELECTIVE INHIBITORY ACTION ON KRAS OVER HRAS AND NRAS” (CHUGAI SEIYAKU KABUSHIKI KAISHA, priority 2021, published 2024)
pIC50, pKd: −log10 of the molar value.

Experiments:
[1] = biological target: GDP-bound HRAS wild-type protein (Homo sapiens, UniProt P01112); assay: Binding to HRAS by surface plasmon resonance (SPR), Single Cycle Kinetics; settings: SPR, GDP-bound HRAS wild-type protein vs GDP-bound KRAS wild-type protein
[2] = biological target: GDP-bound KRAS wild-type protein (Homo sapiens, UniProt P01116); assay: Binding to KRAS by surface plasmon resonance (SPR), Single Cycle Kinetics; settings: SPR, Single Cycle Kinetics, GDP-bound KRAS wild-type protein; read-out: KRAS KD
Sequence of GDP-bound KRAS wild-type protein (P01116 whole entry): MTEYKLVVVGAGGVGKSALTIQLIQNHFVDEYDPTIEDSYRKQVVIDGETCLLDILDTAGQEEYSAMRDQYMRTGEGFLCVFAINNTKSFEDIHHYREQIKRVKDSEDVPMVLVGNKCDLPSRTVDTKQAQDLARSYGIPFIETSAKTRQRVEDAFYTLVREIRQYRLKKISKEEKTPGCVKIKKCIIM

[3] = test system: human lung cancer strain NCI-H441;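 also: cell proliferation inhibition after four days measured by CellTiter-Glo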
[4] = biological target: GDP-bound NRAS wild-type protein (Homo sapiens, UniProt P01111); assay: Binding to NRAS by surface plasmon resonance (SPR), Single Cycle Kinetics; settings: SPR, GDP-bound NRAS wild-type protein vs GDP-bound KRAS wild-type protein
Sequence of GDP-bound NRAS wild-type protein (P01111 whole entry): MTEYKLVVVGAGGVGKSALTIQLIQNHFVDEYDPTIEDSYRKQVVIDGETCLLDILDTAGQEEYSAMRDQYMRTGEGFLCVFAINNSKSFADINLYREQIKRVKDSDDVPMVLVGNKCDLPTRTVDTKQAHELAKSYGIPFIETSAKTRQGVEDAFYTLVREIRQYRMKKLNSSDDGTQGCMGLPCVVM

Sequence of GDP-bound HRAS wild-type protein (P01112 whole entry): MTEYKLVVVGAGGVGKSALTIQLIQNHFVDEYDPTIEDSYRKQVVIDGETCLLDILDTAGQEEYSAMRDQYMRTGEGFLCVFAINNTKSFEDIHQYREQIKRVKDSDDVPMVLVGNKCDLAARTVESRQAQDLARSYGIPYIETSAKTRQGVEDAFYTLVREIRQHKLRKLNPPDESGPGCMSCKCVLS

Row | Structure (SMILES) | HRAS/KRAS (ratio of KD value for HRAS to KD value for KRAS) [1] | pKd [2] | pIC50 [3] | NRAS/KRAS (ratio of KD value for NRAS to KD value for KRAS) [4]
1 | CCCOC[C@H]1C(=O)N[C@@H]([C@@H](C)CC)C(=O)N(C)CC(=O)N(C)[C@H]2C/C=C\CCN(C2=O)[C@@H](Cc2ccc(C)cc2)C(=O)N(C)CC(=O)N[C@@H](CCc2ccc(C(F)(F)F)c(OC)c2)C(=O)N2C[C@H](OCC)C[C@H]2C(=O)NC2(CC(C)(C)C2)C(=O)N(C)[C@@H](C2CCCC2)C(=O)N(C)[C@H](C(=O)N(C)CC)CC(=O)N1C [PP2463] | A (a compound having 10 or more and less than 20 is denoted as A) | 9.96 | 8.19 | A (a compound having 10 or more and less than 20 is denoted as A)
2 | CCCOC[C@H]1C(=O)N[C@@H]([C@@H](C)CC)C(=O)N(C)CC(=O)N(C)[C@H]2C/C=C\CCN(C2=O)[C@@H](CC2CCC(F)(F)CC2)C(=O)N(C)CC(=O)N[C@@H](CCc2ccc(C(F)(F)F)c(OC)c2)C(=O)N2C[C@H](OCC)C[C@H]2C(=O)NC2(CC(C)(C)C2)C(=O)N(C)[C@@H](C(CC)CC)C(=O)N(C)[C@H](C(=O)N(C)C)CC(=O)N1C [PP2464] | A (a compound having 10 or more and less than 20 is denoted as A) | 9.01 | 7.18 | A (a compound having 10 or more and less than 20 is denoted as A)
3 | CCOC[C@H]1C(=O)N[C@@H]([C@@H](C)CC)C(=O)N(C)CC(=O)N(C)[C@H]2C/C=C\CCN(C2=O)[C@@H](Cc2ccc(C)cc2)C(=O)N(C)CC(=O)N[C@@H](CCc2ccc(C(F)(F)F)c(Cl)c2)C(=O)N2C[C@@H](C)C[C@H]2C(=O)NC2(CC(C)(C)C2)C(=O)N(C)[C@@H](C2CCCC2)C(=O)N(C)[C@H](C(=O)N(CC)CC)CC(=O)N1C [PP2465] | A (a compound having 10 or more and less than 20 is denoted as A) | 9.29 | 7.40 | AA (a compound having 20 or more is denoted as AA)
4 | CCC(CC)[C@H]1C(=O)N(C)[C@H](C(=O)N(C)C)CC(=O)N(C)[C@@H](COC)C(=O)N[C@@H]([C@@H](C)CC)C(=O)N(C)CC(=O)N(C)[C@H]2C/C=C\CCN(C2=O)[C@@H](CC2CCCCC2)C(=O)N(C)CC(=O)N[C@@H](CCc2ccc(C(F)(F)F)c(OC)c2)C(=O)N2C[C@@H](C)C[C@H]2C(=O)NC2(CC(C)(C)C2)C(=O)N1C [PP2466] | A (a compound having 10 or more and less than 20 is denoted as A) | 8.41 | 6.77 | A (a compound having 10 or more and less than 20 is denoted as A)
5 | CCCOC[C@H]1C(=O)N[C@@H]([C@@H](C)CC)C(=O)N(C)CC(=O)N(C)[C@H]2C/C=C\CCN(C2=O)[C@@H](Cc2ccc(C)cc2)C(=O)N(C)CC(=O)N[C@@H](CCc2ccc(C(F)(F)F)c(Cl)c2)C(=O)N2C[C@@H](C)C[C@H]2C(=O)NC2(CC(C)(C)C2)C(=O)N(C)[C@@H](C2CCCC2)C(=O)N(C)[C@H](C(=O)N(C)CC)CC(=O)N1C [PP2467] | B (a compound having 3 or more and less than 10 is denoted as B) | 9.59 | 7.66 | A (a compound having 10 or more and less than 20 is denoted as A)
6 | CCO[C@@H]1C[C@H]2C(=O)NC3(CC(C)(C)C3)C(=O)N(C)[C@@H](C(CC)CC)C(=O)N(C)[C@H](C(=O)N(C)C)CC(=O)N(C)[C@@H](COC)C(=O)N[C@@H]([C@@H](C)CC)C(=O)N(C)CC(=O)N(C)[C@H]3C/C=C\CCN(C3=O)[C@@H](CC3CCCCC3)C(=O)N(C)CC(=O)N[C@@H](CCc3ccc(C(F)(F)F)c(Cl)c3)C(=O)N2C1 [PP2468] | A (a compound having 10 or more and less than 20 is denoted as A) | 8.89 | 7.14 | AA (a compound having 20 or more is denoted as AA)
7 | CCCOC[C@H]1C(=O)N[C@@H]([C@@H](C)CC)C(=O)N(C)CC(=O)N(C)[C@H]2C/C=C\CCN(C2=O)[C@@H](Cc2ccc(C)cc2)C(=O)N(C)CC(=O)N[C@@H](CCc2ccc(C(F)(F)F)c(Cl)c2)C(=O)N2C[C@H](OCC)C[C@H]2C(=O)NC2(CC(C)(C)C2)C(=O)N(C)[C@@H](C2CCCC2)C(=O)N(C)[C@H](C(=O)N(C)CC)CC(=O)N1C [PP2469] | B (a compound having 3 or more and less than 10 is denoted as B) | 9.72 | 7.80 | A (a compound having 10 or more and less than 20 is denoted as A)
8 | CCOC[C@H]1C(=O)N[C@@H]([C@@H](C)CC)C(=O)N(C)CC(=O)N(C)[C@H]2C/C=C\CCN(C2=O)[C@@H](CC2CCCCC2)C(=O)N(C)CC(=O)N[C@@H](CCc2ccc(C(F)(F)F)c(OC)c2)C(=O)N2C[C@H](OCC)C[C@H]2C(=O)NC2(CC(C)(C)C2)C(=O)N(C)[C@@H](C(CC)CC)C(=O)N(C)[C@H](C(=O)N(C)C)CC(=O)N1C [PP2470] | A (a compound having 10 or more and less than 20 is denoted as A) | 8.74 | 6.93 | A (a compound having 10 or more and less than 20 is denoted as A)
9 | CCCOC[C@H]1C(=O)N[C@@H]([C@@H](C)CC)C(=O)N(C)CC(=O)N(C)[C@H]2C/C=C\CCN(C2=O)[C@@H](Cc2ccc(C)cc2)C(=O)N(C)CC(=O)N[C@@H](CCc2cc(F)c(C(F)(F)F)c(F)c2)C(=O)N2C[C@@H](C)C[C@H]2C(=O)NC2(CC(C)(C)C2)C(=O)N(C)[C@@H](C2CCCC2)C(=O)N(C)[C@H](C(=O)N(C)CC)CC(=O)N1C [PP2471] | A (a compound having 10 or more and less than 20 is denoted as A) | 9.80 | 7.82 | A (a compound having 10 or more and less than 20 is denoted as A)
10 | CCCOC[C@H]1C(=O)N[C@@H]([C@@H](C)CC)C(=O)N(C)CC(=O)N(C)[C@H]2C/C=C\CCN(C2=O)[C@@H](CC2CCC(F)(F)CC2)C(=O)N(C)CC(=O)N[C@@H](CCc2cc(F)c(C(F)(F)F)c(F)c2)C(=O)N2C[C@H](OCC)C[C@H]2C(=O)NC2(CC(C)(C)C2)C(=O)N(C)[C@@H](C(CC)CC)C(=O)N(C)[C@H](C(=O)N(C)C)CC(=O)N1C [PP2472] | A (a compound having 10 or more and less than 20 is denoted as A) | 9.24 | 7.37 | A (a compound having 10 or more and less than 20 is denoted as A)
11 | CCOC[C@H]1C(=O)N[C@@H]([C@@H](C)CC)C(=O)N(C)CC(=O)N(C)[C@H]2C/C=C\CCN(C2=O)[C@@H](CC2CCC(F)(F)CC2)C(=O)N(C)CC(=O)N[C@@H](CCc2ccc(C(F)(F)F)c(Cl)c2)C(=O)N2C[C@@H](C)C[C@H]2C(=O)NC2(CC(C)(C)C2)C(=O)N(C)[C@@H](C(CC)CC)C(=O)N(C)[C@H](C(=O)N(C)C)CC(=O)N1C [PP2475] | A (a compound having 10 or more and less than 20 is denoted as A) | 8.82 | 6.76 | AA (a compound having 20 or more is denoted as AA)
12 | CCO[C@@H]1C[C@H]2C(=O)NC3(CC(C)(C)C3)C(=O)N(C)[C@@H](C(CC)CC)C(=O)N(C)[C@H](C(=O)N(C)C)CC(=O)N(C)[C@@H](C(C)C)C(=O)N[C@@H]([C@@H](C)CC)C(=O)N(C)CC(=O)N(C)[C@H]3C/C=C\CCN(C3=O)[C@@H](CC3CCC(F)(F)CC3)C(=O)N(C)CC(=O)N[C@@H](CCc3ccc(C(F)(F)F)c(OC)c3)C(=O)N2C1 [PP2477] | A (a compound having 10 or more and less than 20 is denoted as A) | 8.74 | 6.90 | A (a compound having 10 or more and less than 20 is denoted as A)
13 | CCOC[C@H]1C(=O)N[C@@H]([C@@H](C)CC)C(=O)N(C)CC(=O)N(C)[C@H]2C/C=C\CCN(C2=O)[C@@H](CC2CCCCC2)C(=O)N(C)CC(=O)N[C@@H](CCc2cc(F)c(C(F)(F)F)c(F)c2)C(=O)N2C[C@H](OCC)C[C@H]2C(=O)NC2(CC(C)(C)C2)C(=O)N(C)[C@@H](C(CC)CC)C(=O)N(C)[C@H](C(=O)N(C)C)CC(=O)N1C [PP2479] | A (a compound having 10 or more and less than 20 is denoted as A) | 8.85 | 7.59 | AA (a compound having 20 or more is denoted as AA)
14 | CCO[C@@H]1C[C@H]2C(=O)NC3(CC(C)(C)C3)C(=O)N(C)[C@@H](C(CC)CC)C(=O)N(C)[C@H](C(=O)N(C)C)CC(=O)N(C)[C@@H](CC3CC3)C(=O)N[C@@H]([C@@H](C)CC)C(=O)N(C)CC(=O)N(C)[C@H]3C/C=C\CCN(C3=O)[C@@H](CC3CCC(F)(F)CC3)C(=O)N(C)CC(=O)N[C@@H](CCc3ccc(C(F)(F)F)c(OC)c3)C(=O)N2C1 [PP2480] | A (a compound having 10 or more and less than 20 is denoted as A) | 9.08 | 7.52 | A (a compound having 10 or more and less than 20 is denoted as A)
15 | CCO[C@@H]1C[C@H]2C(=O)NC3(CC(C)(C)C3)C(=O)N(C)[C@@H](C(CC)CC)C(=O)N(C)[C@H](C(=O)N(C)C)CC(=O)N(C)[C@@H](C(C)C)C(=O)N[C@@H]([C@@H](C)CC)C(=O)N(C)CC(=O)N(C)[C@H]3C/C=C\CCN(C3=O)[C@@H](CC3CCC(F)(F)CC3)C(=O)N(C)CC(=O)N[C@@H](CCc3cc(F)c(C(F)(F)F)c(F)c3)C(=O)N2C1 [PP2481] | A (a compound having 10 or more and less than 20 is denoted as A) | 8.80 | 7.47 | A (a compound having 10 or more and less than 20 is denoted as A)
